Common to all, as to type: ADME, organism-based
Data set [1] is described as follows: Oral bioavailability in Sprague-Dawley rat at 750 mg/kg, po. Conditions: in vivo, pooled result: one value given for 3 cell lines, strains, targets or settings.
Data set [2] concerns Rattus norvegicus. Description: Intercompartmental clearance in Sprague-Dawley rat assessed as L-eflornithine at 1000 mg/kg, iv administered as 3 mins short-term infusion. Conditions: in vivo, 0.05 h. The arrangement: dose 1000 mg/kg, route intravenous.
The nature of data set [3]: Oral bioavailability in Sprague-Dawley rat at 3000 mg/kg, po. Particulars: in vivo.
For data set [4], the system named is Rattus norvegicus. Description: Mean transit time in Sprague-Dawley rat assessed as L-eflornithine at 750 to 3000 mg/kg, po. Particulars: in vivo. Set-up: dose 750-3000 mg/kg, route oral.
Data set [5] deals with Rattus norvegicus. In words: Mean transit time in Sprague-Dawley rat assessed as D-eflornithine at 750 to 3000 mg/kg, po. The arrangement: dose 750-3000 mg/kg, route oral. Particulars: in vivo.
Data set [6] concerns Rattus norvegicus. Description: Intercompartmental clearance in Sprague-Dawley rat assessed as L-eflornithine at 375 mg/kg, iv administered as single infusion. Set-up: dose 375 mg/kg, route intravenous. Particulars: in vivo.
Data set [7] relates to Rattus norvegicus. Description: Intercompartmental clearance in Sprague-Dawley rat assessed as D-eflornithine at 375 mg/kg, iv administered as single infusion. The arrangement: dose 375 mg/kg, route intravenous. Conditions: in vivo.
Data set [8] deals with Rattus norvegicus. In words: Intercompartmental clearance in Sprague-Dawley rat assessed as D-eflornithine at 1000 mg/kg, iv administered as 3 mins short-term infusion. Conditions: in vivo, 0.05 h. The arrangement: dose 1000 mg/kg, route intravenous.
Data set [9] is described as follows: Clearance in Sprague-Dawley rat at 1000 mg/kg, iv administered as 3 mins short-term infusion. Set-up: dose 1000 mg/kg, route intravenous. Particulars: in vivo.
A short description of data set [10]: Central volume of distribution in Sprague-Dawley rat at 375 mg/kg, iv administered as single infusion. The arrangement: dose 375 mg/kg, route intravenous. Conditions: in vivo.
Data set [11] is described as follows: Central volume of distribution in Sprague-Dawley rat at 1000 mg/kg, iv administered as 3 mins short-term infusion. Set-up: dose 1000 mg/kg, route intravenous. Particulars: in vivo.
Data set [12] can be described thus: Clearance in Sprague-Dawley rat at 375 mg/kg, iv administered as single infusion. Set-up: dose 375 mg/kg, route intravenous. Particulars: in vivo.

In the case of `NCCCC(N)(C(=O)O)C(F)F` (racemic) [EFLORNITHINE], the bioavailability in data set [1] turned out to be 62.3%; in [3], 82.7%. For the same compound, the CL in data set [2], in data set [6], in data set [7] and in [8] was 1.2 mL/min/kg in each case. Also, the MTT in [4] and in [5] was 88 min in each case.

As for `NCCC[C@](N)(C(=O)O)C(F)F` [EFLORNITHINE, (S)-], the values for the bioavailability in data set [1] and in [3] were 41% and 47%, respectively. In addition, the clearance in data set [9] and in data set [12] was 14.5 mL/min/kg throughout. The Vd in data set [10] and in data set [11] was 0.404 L/kg in each case.

As for `NCCC[C@@](N)(C(=O)O)C(F)F` [D-EFLORNITHINE], the Vd in data set [11] came out at 0.401 L/kg. This compound also showed a clearance in data set [12] of 12.6 mL/min/kg.

For the origin of these results see ChEMBL document CHEMBL1275478, “Enantioselective and nonlinear intestinal absorption of eflornithine in the rat” (Antimicrob Agents Chemother, 2008).
